Results published in article PMC6430730, “A short peptide potentially promotes the healing of skin wound” (Bioscience Reports, 2019).
Where a SMILES comes first, the peptide text is derived from it.

Columns and labels:
C. albicans (ATCC 14053) = test: Antimicrobial activity assay (agar hole diffusion); type: cell-based, Candida albicans; parameters: key: +: Possessing antimicrobial activity; -: Possessing no antimicrobial activity; details: Amp (1 mg/ml), 7 μl in agar hole, 16–18 h, 37°C
Experimental: (§1) The antimicrobial activity of OA-GL12 was performed based on our previous research. Briefly, fungal strain Candida albicans (ATCC 14053), Gram-positive bacterial strains Staphylococcus epidermidis (ATCC 12228), Staphylococcus haemolyticus (ATCC 29970), and Bacillus subtilis (ATCC 19659), Gram-negative bacterial strains Escherichia coli (ATCC 25922) were obtained from the Kunming Medical University. The microbes were cultivated in LB broth to OD600 = 0.8. A 10-μl aliquot of the bacteria was collected and added to fresh LB (10 ml) broth with 1% Type I agar (Sigma–Aldrich, St. Louis, MO, U.S.A.), and then poured into a 90-mm Petri dish. A micro hole was made after the agar was solidified, and a 7-μl aliquot of OA-GL12 (1 mM) was added to the hole. Petri dish was placed for 16–18 h at 37°C. As the symbol of antimicrobial activity, a clear zone appeared on the surface of the agar just like ampicillin (1 mg/ml), positive control, which represented the antimicrobial ability of OA-GL12.

[1] = test system: S. epidermidis (ATCC 12228); test: Antimicrobial activity assay (agar hole diffusion); type: cell-based, Staphylococcus epidermidis; parameters: key: +: Possessing antimicrobial activity; -: Possessing no antimicrobial activity; details: Amp (1 mg/ml), 7 μl in agar hole, 16–18 h, 37°C
Experimental: as §1

[2] = test system: S. haemolyticus (ATCC 29970); test: Antimicrobial activity assay (agar hole diffusion); type: cell-based, Staphylococcus haemolyticus; parameters: key: +: Possessing antimicrobial activity; -: Possessing no antimicrobial activity; details: Amp (1 mg/ml), 7 μl in agar hole, 16–18 h, 37°C
Experimental: as §1

B. subtilis (ATCC 19659) = test: Antimicrobial activity assay (agar hole diffusion); type: cell-based, Bacillus subtilis; parameters: key: +: Possessing antimicrobial activity; -: Possessing no antimicrobial activity; details: Amp (1 mg/ml), 7 μl in agar hole, 16–18 h, 37°C
Experimental: as §1

E. coli (ATCC 25922) = test: Antimicrobial activity assay (agar hole diffusion); type: cell-based, Escherichia coli; parameters: key: +: Possessing antimicrobial activity; -: Possessing no antimicrobial activity; details: Amp (1 mg/ml), 7 μl in agar hole, 16–18 h, 37°C
Experimental: as §1

HaCaT cells [3] = test: Cytotoxicity of Gefitinib on HaCaT cells; type: cell-based, human; details: Gefitinib 1 μM, 24 h; data not shown
HaCaT cells [4] = test: Cellular wound healing (scratch) assay, HaCaT; type: cell-based, human; details: MMC 10 µg/ml alone, 24 h; vehicle 53.39 ± 10.11%; mean ± S.D., n=9
Experimental: (§2) Cellular wound healing activity assay was performed as previous research. Briefly, human keratinocytes (HaCaT) (KCB 200442YJ) and human skin fibroblasts (HSF) (KCB 200537) were provided by Conservation Genetics CAS Kunming Cell Bank of Kunming Institute of Zoology, the Chinese Academy of Sciences, and cultured in Dulbecco’s modified Eagle’s medium (DMEM, BI, Israel) with 10% FBS (BI, Israel) and penicillin (100 units/ml)–streptomycin (100 units/ml) in a humidified atmosphere of 5% CO2 (37°C). The possible mycoplasma contamination was excluded by the EZ-PCR mycoplasma contamination detection kit (20-700-20, BI). Cell monolayer formation was formed by culturing the HaCaT and HSF (2.5 × 10^5 cells/well) cells in 24-well plates for 12–24 h with serum starvation and then made to the mechanical scratch wound by a sterile pipette tip (Axygen, U.S.A.). After washing with PBS twice to detach dead cells, cells monolayer was then cultured for next periods (from 0 to 24 h) in a serum-free basal medium (500 μl) with the continued presence of OA-GL12. The same volume of DMEM without OA-GL12 was made as vehicle. […] Cell migration activity was expressed as the percentage of the gap relative to the full area of the scratch using ImageJ software (National Institutes of Health, Bethesda, MD, U.S.A.) to evaluate the repair rate of scarification.

HSF cells = test: Cellular wound healing (scratch) assay, HSF; type: cell-based, human; details: MMC 10 µg/ml alone, 24 h; vehicle 38.96 ± 3.34%; mean ± S.D., n=9
Experimental: as §2

human erythrocytes = test: Hemolytic activity assay; type: cell-based
Experimental: Hemolytic activity assay was performed according to previous research. Briefly, erythrocytes were triply and softly washed with 0.9% normal saline. Then cells were incubated with various concentrations of OA-GL12 for 30 min (37°C), while 0.1% Triton X-100 as maximum hemolysis. The absorbance of supernatant was read at 540 nm after centrifugation with 3000×g for 4 min at room temperature. The numeric data of hemolytic activity (%) was calculated by [(Asample) × 100]/Atriton x-100.

mice = test: Acute toxicity assay; type: in vivo; details: for Mortality (%): 3 male and 3 female mice, observed 2 weeks
Experimental: Two phases of acute toxicity were performed as previous study. Lethal concentration of OA-GL12 was tested at 5, 10, 25, and 50 μmol/kg by i.p. in mice, while using saline as negative control. The mortalities, toxic effects, and behavioral changes were observed and recorded for 2 weeks.

[5] = test system: full-thickness skin wound mice; details: in vivo
Experimental: Adult male mice (22–25 g) from the same generation were purchased from Hunan SJA Laboratory Animal Co., Ltd (Certificate number 43004700043639, China). […] Mice were made full-thickness skin wound models after 7 days’ acclimation. Briefly, mice were anesthetized by intraperitoneal injection (i.p.) with 1% sodium pentobarbital (0.1 ml/20 g body weight). Dorsal hair were shaved by an electric clipper and sterilized with 75% alcohol. Two full-thickness skin wounds (8 × 8 mm) were surgically made on the back. After the surgery, the mice were placed in comfortable cages until they recovered from anesthesia. Nine mice were randomly divided into three groups. […] The left-sided wounds of the two groups were treated with the same volume of normal saline as vehicle, and the last group treated with 1 mg/ml KangFuXin (KFX, the ethanol extract of the American cockroach, Inner Mongolia Jingxin Pharmaceutical Co. Ltd, China, Z15020805) as positive control. Wounds were treated twice daily with samples and photographed at intervals of 2 days.
The condition of wounds was documented; then ImageJ software was used to estimate the wound areas (percentage of residual wound area to initial areas). […]

[6] = DPPH free radical scavenging; type: physicochemical; details: 30 min, room temperature, A517
Experimental: 2,2′-azino-bis (3-ethylbenzothiazoline-6-sulphonic acid) (ABTS) and 2,2-diphenyl-1-picrythydrazyl (DPPH)) scavenging activities of OA-GL12 were assessed referring to previous studies. Briefly, a stock solution of ABTS radical was prepared by incubating 2.8 mM potassium persulphate (Sigma–Aldrich, St. Louis, MO, U.S.A.) with 7 mM ABTS in water for no less than 6 h in the dark, and used immediately. The stock solution was diluted 50-fold with double distilled water. Dissolved samples with ultrapure water were added to the diluted stock solution, while the same volume of solvent was used as the blank, and Vitamin C as the positive control. The reaction was in the dark for 30 min. […] Meanwhile, the assay mixture contained 190 μl of 5 × 10^−5 M DPPH radical (Sigma–Aldrich, St. Louis, MO, U.S.A.) dissolved in ethanol and 10 μl of sample solution. The mixture was then incubated in a 96-well microtiter plates at room temperature for 30 min. Subsequently, the absorbance was measured at 517 nm. The free radical scavenging activity (%) was calculated by (Ablank − Asample) × 100/Ablank.

## CC1(C)S[C@@H]2[C@H](NC(=O)[C@H](N)c3ccccc3)C(=O)N2[C@H]1C(=O)O [Amp, ampicillin]
C. albicans (ATCC 14053)
  Antimicrobial activity: +
[1]
  Antimicrobial activity: +
[2]
  Antimicrobial activity: +
B. subtilis (ATCC 19659)
  Antimicrobial activity: +
E. coli (ATCC 25922)
  Antimicrobial activity: +

## COc1cc2ncnc(Nc3ccc(F)c(Cl)c3)c2cc1OCCCN1CCOCC1 [Gefitinib]
HaCaT cells [3]
  cytotoxicity on HaCaT cells: no obvious cytotoxicity

## CO[C@@]12[C@H](COC(N)=O)C3=C(C(=O)C(C)=C(N)C3=O)N1C[C@@H]1N[C@@H]12 [MMC, mitomycin C]
HaCaT cells [4]
  healing rate of HaCaT cell scratch: 26.66 ± 4.64%
HSF cells
  scratch healing of HSF cells: 22.78 ± 5.22%

## CC[C@H](C)[C@H](NC(=O)CNC(=O)[C@H](CO)NC(=O)[C@H](CC(C)C)NC(=O)[C@H](CC(C)C)NC(=O)CN)C(=O)N[C@@H](CC(N)=O)C(=O)N[C@@H](C)C(=O)N[C@@H](CCC(=O)O)C(=O)N[C@@H](Cc1c[nH]c2ccccc12)C(=O)N1CCC[C@H]1C(=O)N[C@@H](CS)C(=O)O [OA-GL12] (H-GLLSGINAEWPC-OH)
Human erythrocytes
  hemolytic activity on human erythrocytes in vitro: negligible hemolytic activity
mice; 5 μmol/kg i.p.
  Mortality (%): 0%
mice; 10 μmol/kg i.p.
  Mortality (%): 0%
mice; 25 μmol/kg i.p.
  Mortality (%): 0%
mice; 50 μmol/kg i.p.
  Mortality (%): 0%
mice; i.p. injection, 2 weeks
  death and abnormal behaviors (tremor, retardation, irritability, piloerection, stiffness of tail): no death and other abnormal behaviors
[5]
  adverse effects on mouse body weight, general health, or behavior: No adverse effects

## O=C1O[C@H]([C@@H](O)CO)C(O)=C1O [Vitamin C]
[6]; 0.063 μM
  DPPH scavenging activity: nearly inactive
[6]; 1 μM, mean ± S.D., n=3
  DPPH scavenging: 7.71 ± 0.56%

## Triton X-100
Human erythrocytes; 0.1% Triton X-100 as maximum hemolysis, 30 min, 37°C, A540
  Hemolytic ratio (%): 100%
